Consider three molecules from patent publication US20180320217A1, “METHODS FOR SAMPLING AND MEASURING ORAL LAVAGE PROTEINS” (The Procter & Gamble Company, priority 2017, published 2018).

Series [1] deals with T1, Malate dehydrogenase (Sus scrofa, UniProt P00346).
T1 sequence (P00346 25-338): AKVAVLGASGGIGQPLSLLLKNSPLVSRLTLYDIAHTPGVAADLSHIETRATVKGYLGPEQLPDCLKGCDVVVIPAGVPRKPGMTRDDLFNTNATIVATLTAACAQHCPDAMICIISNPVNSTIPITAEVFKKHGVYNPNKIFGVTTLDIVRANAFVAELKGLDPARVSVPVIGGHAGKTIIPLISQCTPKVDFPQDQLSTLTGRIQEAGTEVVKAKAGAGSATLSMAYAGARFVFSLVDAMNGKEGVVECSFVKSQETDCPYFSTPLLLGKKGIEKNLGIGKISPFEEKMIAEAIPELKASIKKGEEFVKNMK
Briefly: Effect of concentrations of malate on formation of formazan dyes (FIG. 6). Format: biochemical. The arrangement: purchased Sigma-Aldrich 10127248001 / 10127914001 (MDH). The settings on record: 2 mM WST-8, 128.5 μM NAD+, 1.5 units malate dehydrogenase. How it is done: Substrate concentrations are important parameters in an enzymatic assay. An experiment was carried out to determine the effect of malate concentrations on formation of formazan dyes. […] Absorbance was measured every 5 minutes for 2 hours. […] But at low concentrations from 0.001 mM to 15.6 mM, formation of formazan dyes was positively correlated with malate concentrations.

The target in series [2] is T1, Malate dehydrogenase. Briefly: Effect of concentrations of NAD+ on formation of formazan dyes (FIG. 5). Format: biochemical. Also on record: purchased Sigma-Aldrich 10127248001 / 10127914001 (MDH). The settings on record: 2 mM WST-8, 15 mM malate, 1.5 units malate dehydrogenase. How it is done:
To determine optimal conditions for quantifying enzymes in the gingival brush samples, oral lavage and gingival plaques, an experiment was carried out to determine the effect of NAD+ on conversion of tetrazolium salts to formazan dyes. […] Absorbance was taken at every 5 minutes for 2 hours.

Series [3] can be described thus: UV absorbance analysis of formazan products, TABLE 6. The settings on record: in the presence of 1-methoxy PMS.

Structures are written as SMILES. Counter-ions that a name gives are not always drawn.

`O=C(O)CC(O)C(=O)O` (stereo not drawn) [malate]: in series [1], the “malate concentrations that inhibited production of formazan dyes” value is given as “above 65 mM”.
For the molecule `NC(=O)c1ccc[n+]([C@@H]2O[C@H](COP(=O)([O-])OP(=O)(O)OC[C@H]3O[C@@H](n4cnc5c(N)ncnc54)[C@H](O)[C@@H]3O)[C@@H](O)[C@H]2O)c1` [NAD+, Nicotinamide adenine dinucleotide], the “amount of formazan formation versus NAD+ concentration” value in series [2] is listed as “proportional to the concentrations of NAD+”.
`O=[N+]([O-])c1ccc(-n2nc(-c3ccccc3)n[n+]2-c2ccc(/N=N/c3ccc(S(=O)(=O)O)cc3)cc2S(=O)(=O)[O-])cc1` [WST-9, 2-(4-Nitrophenyl)-5-phenyl-3-[4-(4-sulfophenylazo)-2-sulfophenyl]-2H-tetrazolium, monosodium salt]: the “solubility of formazan products” value in series [3] is given as “form precipitates”.
